One compound from US20250099364A1, “METHOD AND COMPOSITIONS FOR COSMETIC COMPOSITIONS” (MARY KAY INC., priority 2023, published 2025) can be followed below.

Common to all, as to type: cell-based
In assay [1] the test system is collagen production in fibroblasts. Put plainly: Collagen production in fibroblasts treated with oxytocin. The settings on record: 72 hours. The protocol:
FIG. 2. Fibroblasts were treated with oxytocin for 72 hours.

In assay [2] the test system is elastin production in fibroblasts. Put plainly: Elastin production in fibroblasts treated with oxytocin. The settings on record: 72 hours. The protocol: FIG. 3. Fibroblasts were treated with oxytocin for 72 hours.
Assay [3] deals with IL-15 production in keratinocytes. The experiment in a line: IL-15 production in keratinocytes treated with oxytocin. The settings on record: 24 hours. The method, then:
FIG. 4. Keratinocytes were treated with oxytocin for 24 hours.

Structures are written as SMILES.

With `CC[C@H](C)[C@@H]1NC(=O)[C@H](Cc2ccc(O)cc2)NC(=O)[C@@H](N)CSSC[C@@H](C(=O)N2CCC[C@H]2C(=O)N[C@@H](CC(C)C)C(=O)NCC(N)=O)NC(=O)[C@H](CC(N)=O)NC(=O)[C@H](CCC(N)=O)NC1=O` [oxytocin], the “increase in collagen production compared to untreated control” value is listed as “+109%” in assay [1] (25 μg/mL oxytocin) and “+117%” in assay [1] (100 μg/mL oxytocin). Also, the “increase in elastin production compared to untreated control” value in assay [2] (25 ng/mL oxytocin) is “+166%”; in assay [2] (100 ng/mL oxytocin), “+127%”; in assay [2] (25 μg/mL oxytocin) it was “+133%”; in assay [2] (100 μg/mL oxytocin) it was “+117%”. Moreover, the “increase in IL-15 production compared to untreated control” value in assay [3] (25 ng/mL oxytocin) was “+50%”; in assay [3] (100 ng/mL oxytocin), “+90%”; in assay [3] (5 μg/mL oxytocin), “+121%”; in assay [3] (25 μg/mL oxytocin), “+165%”; in assay [3] (100 μg/mL oxytocin), “+331%”.
